Assay results published in patent US9676728B2, “2-benzyl-benzimidazole complement factor B inhibitors and uses thereof” (Novartis AG, priority 2013, dated 2017).

Legend:
[1] = target: human complement factor B (CVF-Bb complex) (Homo sapiens (Human), UniProt P00751); test: biochemical
Protocol: CVF-Bb complex prepared from purified cobra venom factor (1 μM), recombinant human complement factor B (expressed in drosophila cells and purified using standard methods) and human complement factor D (expressed in E. Coli, refolded and purified using standard methods). CVF-Bb complex at 3 nM concentration was incubated with test compound at various concentrations for 1 hour at room temperature in PBS pH 7.4 containing 10 mM MgCl2 and 0.05% (w/v) CHAPS. Human complement C3 substrate purified from plasma was added to a final concentration of 1 μM. After 1 hour incubation at room temperature, the enzyme reaction was stopped by addition of a cocktail of concentrated pan-protease inhibitors. The product of the reaction, C3a, was quantified by means of an enzyme-linked-immunosorbent assay.

[2] = target: Recombinant human factor B (Homo sapiens (Human), UniProt P00751); test: Human Complement Factor B TR-FRET Assay (displacement of Cy5-labeled ligand)
Sequence of Recombinant human factor B (P00751 26-764): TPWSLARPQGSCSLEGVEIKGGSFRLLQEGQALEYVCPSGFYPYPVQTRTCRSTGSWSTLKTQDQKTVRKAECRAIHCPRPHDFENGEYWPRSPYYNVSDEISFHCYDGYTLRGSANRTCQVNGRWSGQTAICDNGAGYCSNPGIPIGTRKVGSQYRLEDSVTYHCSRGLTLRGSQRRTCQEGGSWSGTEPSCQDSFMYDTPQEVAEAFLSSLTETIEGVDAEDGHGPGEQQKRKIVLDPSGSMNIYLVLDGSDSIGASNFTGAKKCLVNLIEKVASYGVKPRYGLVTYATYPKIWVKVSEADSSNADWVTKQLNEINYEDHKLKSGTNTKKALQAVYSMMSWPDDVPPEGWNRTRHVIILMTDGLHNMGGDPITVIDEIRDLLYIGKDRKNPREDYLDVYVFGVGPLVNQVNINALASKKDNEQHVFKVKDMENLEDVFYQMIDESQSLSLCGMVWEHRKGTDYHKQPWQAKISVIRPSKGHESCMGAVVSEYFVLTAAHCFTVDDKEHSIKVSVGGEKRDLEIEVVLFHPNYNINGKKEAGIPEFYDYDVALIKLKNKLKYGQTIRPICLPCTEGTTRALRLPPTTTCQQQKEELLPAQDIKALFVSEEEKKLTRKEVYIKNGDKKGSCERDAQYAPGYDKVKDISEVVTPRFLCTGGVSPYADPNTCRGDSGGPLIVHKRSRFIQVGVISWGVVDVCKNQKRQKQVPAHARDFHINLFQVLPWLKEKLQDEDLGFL

| Compound | IC50 [1] | IC50 [2] |
| --- | --- | --- |
| COc1cc(C)cc(C)c1C(O)c1nc2cc(C#N)ccc2[nH]1 (racemic) [Example 1-C, (±)-2-(Hydroxy(2-methoxy-4,6-dimethylphenyl)methyl)-1H-benzo[d]imidazole-5-carbonitrile] | 5.75 µM |  |
| COc1cc(C)cc(C)c1C(C)(O)c1nc2cc(C#N)ccc2[nH]1 (racemic) [Example 2-C, (±)-2-(1-Hydroxy-1-(2-methoxy-4,6-dimethylphenyl)ethyl)-1H-benzo[d]imidazole-5-carbonitrile] | 1.45 µM |  |
| COc1cc(C)cc(C)c1C(O)(c1nc2cc(C#N)ccc2[nH]1)C(F)(F)F (racemic) [Example 3-B, (±)-2-(2,2,2-Trifluoro-1-hydroxy-1-(2-methoxy-4,6-dimethylphenyl)ethyl)-1H-benzo[d]imidazole-5-carbonitrile] | 0.39 µM |  |
| COc1cc(C)c(Br)c(C)c1C(O)(c1nc2cc(C#N)ccc2[nH]1)C(F)(F)F (racemic) [Example 4, (±)-2-(1-(3-bromo-6-methoxy-2,4-dimethylphenyl)-2,2,2-trifluoro-1-hydroxyethyl)-1H-benzo[d]imidazole-5-carbonitrile] |  | 98.9 µM |
| CNC(c1nc2cc(C#N)ccc2[nH]1)(c1ccc(C)cc1OC)C(F)(F)F (racemic) [Example 6-A, (±)-2-(2,2,2-Trifluoro-1-(2-methoxy-4-methylphenyl)-1-(methylamino)ethyl)-1H-benzo[d]imidazole-5-carbonitrile] | 0.38 µM |  |
| CNC(c1nc2cc(C#N)ccc2[nH]1)(c1c(OC)cc(C)c(Cl)c1C)C(F)(F)F (racemic) [Example 6-B, (±)-2-(1-(3-Chloro-6-methoxy-2,4-dimethylphenyl)-2,2,2-trifluoro-1-(methylamino)ethyl)-1H-benzo[d]imidazole-5-carbonitrile] | 1.98 µM |  |
| CNC(c1nc2cc(C#N)ccc2[nH]1)(c1c(C)cccc1OC)C(F)(F)F (racemic) [Example 6-C, (±)-2-(2,2,2-Trifluoro-1-(2-methoxy-6-methylphenyl)-1-(methylamino)ethyl)-1H-benzo[d]imidazole-5-carbonitrile] | 3.13 µM |  |
| COc1cc(C)cc(C)c1C(N)(c1nc2cc(C#N)ccc2[nH]1)C(F)(F)F (racemic) [Example 6-D, (±)-2-(1-Amino-2,2,2-trifluoro-1-(2-methoxy-4,6-dimethylphenyl)ethyl)-1H-benzo[d]imidazole-5-carbonitrile] | 1.57 µM |  |
| CNC(c1nc2cc(C#N)ccc2[nH]1)(c1c(OC)cc(C)c(Br)c1C)C(F)(F)F (racemic) [Example 6-E, (±)-2-(1-(3-Bromo-6-methoxy-2,4-dimethylphenyl)-2,2,2-trifluoro-1-(methylamino)ethyl)-1H-benzo[d]imidazole-5-carbonitrile] |  | 7 µM |
| COc1cc(C)cc(C)c1C(N)c1nc2cc(C#N)ccc2[nH]1 (racemic) [Example 7-D, (±)-2-(Amino(2-methoxy-4,6-dimethylphenyl)methyl)-1H-benzo[d]imidazole-5-carbonitrile] | 8.7 µM |  |
| COc1cc(C)cc(C)c1C(C)(N)c1nc2cc(C#N)ccc2[nH]1 (racemic) [Example 8-B, (±)-2-(1-Amino-1-(2-methoxy-4,6-dimethylphenyl)ethyl)-1H-benzo[d]imidazole-5-carbonitrile] | 6.9 µM |  |
| COc1cc(C)cc(C)c1C(N)(c1nc2cc(C#N)ccc2[nH]1)C1CC1 (racemic) [Example 9-C, (±)-2-(Amino(cyclopropyl)(2-methoxy-4,6-dimethylphenyl)methyl)-1H-benzo[d]imidazole-5-carbonitrile] | 1.5 µM |  |
| COc1cc(C)cc(C)c1C(OCC(N)=O)(c1nc2cc(C#N)ccc2[nH]1)C(F)(F)F (racemic) [Example 10-C, (±)-2-(1-(5-Cyano-1H-benzo[d]imidazol-2-yl)-2,2,2-trifluoro-1-(2-methoxy-4,6-dimethylphenyl)ethoxy)acetamide] |  | 0.47 µM |
| CNC(c1nc2cc(C#N)ccc2[nH]1)c1c(OC)cc(C)cc1OC (racemic) [Example 12-D (A), (±)-2-((2,6-Dimethoxy-4-methylphenyl)(methylamino)methyl)-1H-benzo[d]imidazole-5-carbonitrile] | 13.9 µM |  |
| CNC(c1nc2cc(C#N)ccc2[nH]1)(c1c(OC)cc(C)cc1OC)C(F)(F)F (racemic) [Example 12-D (B), (±)-2-(1-(2,6-dimethoxy-4-methylphenyl)-2,2,2-trifluoro-1-(methylamino)ethyl)-1H-benzo[d]imidazole-5-carbonitrile] | 11.1 µM |  |
